Measurements published in ChEMBL document CHEMBL3745627, “A Methylene Group on C-2 of 24,24-Difluoro-19-nor-1α,25-dihydroxyvitamin D3 Markedly Increases Bone Calcium Mobilization in Vivo” (J Med Chem, 2015).

Columns and labels:
Rattus norvegicus [1] = assay: Induction of bone mobilization activity in weaning Sprague-Dawley rat assessed as increase in serum calcium level at 16 pmol, ip for 4 consecutive dose at an interval of 24 hrs measured 24 hrs after last dose (reference value: 4.4 to 4.5 mg/dl); assay type: functional
Rattus norvegicus [2] = assay: Induction of bone mobilization activity in weaning Sprague-Dawley rat assessed as increase in serum calcium level at 87 pmol, ip for 4 consecutive dose at an interval of 24 hrs measured 24 hrs after last dose (reference value: 4.4 to 4.5 mg/dl); assay type: functional
Rattus norvegicus [3] = assay: Induction of bone mobilization activity in weaning Sprague-Dawley rat assessed as increase in serum calcium level at 780 pmol, ip for 4 consecutive dose at an interval of 24 hrs measured 24 hrs after last dose (reference value: 4.4 to 4.5 mg/dl); assay type: functional
Vitamin D3 receptor = molecular target: T1, Vitamin D3 receptor (Rattus norvegicus, UniProt P13053); assay: Displacement of [3H]1alpha,25-(OH)2D3 from full-length recombinant rat VDR by scintillation counter
T1 sequence (P13053 whole entry): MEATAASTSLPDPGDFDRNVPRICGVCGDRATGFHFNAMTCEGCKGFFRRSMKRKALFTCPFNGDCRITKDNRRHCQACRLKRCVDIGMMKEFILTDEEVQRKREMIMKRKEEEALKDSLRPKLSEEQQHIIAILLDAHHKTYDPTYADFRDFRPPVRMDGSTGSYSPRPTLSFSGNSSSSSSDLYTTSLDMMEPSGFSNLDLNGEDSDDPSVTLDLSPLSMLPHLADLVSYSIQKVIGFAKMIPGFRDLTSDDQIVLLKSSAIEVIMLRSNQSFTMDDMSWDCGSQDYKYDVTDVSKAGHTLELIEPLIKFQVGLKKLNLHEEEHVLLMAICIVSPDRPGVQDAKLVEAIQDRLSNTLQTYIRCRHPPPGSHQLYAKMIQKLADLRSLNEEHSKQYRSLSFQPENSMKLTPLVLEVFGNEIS

HL-60 [4] = assay: Induction of human HL60 cell differentiation assessed as differentiation from promyelocytes to monocytes by NBT assay; assay type: functional; conditions: read-out: ED50 (the source's name)
HL-60 [5] = assay: Potency index, ratio ED50 of 1alpha,25-(OH)2D3 to ED50 of compound for induction of human HL60 cell differentiation; assay type: functional
[6] = molecular target: T2, Vitamin D3 receptor (Rattus norvegicus) (UniProt P13053); assay: Transactivation of VDR in rat osteosarcoma cells assessed as 24-hydroxylase transcriptional activity by luciferase reporter gene assay; assay type: cell-based
T2 sequence (whole entry): T1 sequence (P13053 whole entry)

Rattus norvegicus [7] = assay: Induction of bone mobilization activity in weaning Sprague-Dawley rat assessed as increase in serum calcium level at 260 pmol, ip for 4 consecutive dose at an interval of 24 hrs measured 24 hrs after last dose (reference value: 4.4 to 4.5 mg/dl); assay type: functional
Rattus norvegicus [8] = assay: Induction of bone mobilization activity in weaning Sprague-Dawley rat assessed as increase in serum calcium level at 32 pmol, ip for 4 consecutive dose at an interval of 24 hrs measured 24 hrs after last dose (reference value: 4.4 to 4.5 mg/dl); assay type: functional
Rattus norvegicus [9] = assay: Induction of intestinal calcium transport in weaning Sprague-Dawley rat assessed as ratio of calcium level in serosal to mucosal at 780 pmol, ip for 4 consecutive dose at an interval of 24 hrs measured 24 hrs after last dose (reference value: 3.7 to 4.8); assay type: functional
Rattus norvegicus [10] = assay: Induction of intestinal calcium transport in weaning Sprague-Dawley rat assessed as ratio of calcium level in serosal to mucosal at 260 pmol, ip for 4 consecutive dose at an interval of 24 hrs measured 24 hrs after last dose (reference value: 3.7 to 4.8); assay type: functional
Rattus norvegicus [11] = assay: Induction of intestinal calcium transport in weaning Sprague-Dawley rat assessed as ratio of calcium level in serosal to mucosal at 32 pmol, ip for 4 consecutive dose at an interval of 24 hrs measured 24 hrs after last dose (reference value: 3.7 to 4.8); assay type: functional
Rattus norvegicus [12] = assay: Induction of intestinal calcium transport in weaning Sprague-Dawley rat assessed as ratio of calcium level in serosal to mucosal at 16 pmol, ip for 4 consecutive dose at an interval of 24 hrs measured 24 hrs after last dose (reference value: 3.7 to 4.8); assay type: functional

Ki (Vitamin D3 receptor) [nM]	EC50 (HL-60 [4]) [nM]	ED50 [6] [nM]	Compound	Activity (Rattus norvegicus [1]) [mg/dL]	Activity (Rattus norvegicus [2]) [mg/dL]	Activity (Rattus norvegicus [3]) [mg/dL]	Ratio ED50 (HL-60 [5])	Activity (Rattus norvegicus [7]) [mg/dL]	Activity (Rattus norvegicus [8]) [mg/dL]	Ratio (Rattus norvegicus [9])	Ratio (Rattus norvegicus [10])	Ratio (Rattus norvegicus [11])	Ratio (Rattus norvegicus [12])
–	–	–	C=C1/C(=C\C=C2/CCC[C@]3(C)[C@@H]([C@H](C)CCCC(C)(C)O)CC[C@@H]23)C[C@@H](O)C[C@@H]1O [CALCITRIOL]	5.3	6.6	7.6	–	–	–	–	–	–	–
0.04	0.1	0.01	C=C1[C@H](O)CC(=C/C=C2\CCC[C@]3(C)[C@@H]([C@H](C)CCC(F)(F)C(C)(C)O)CC[C@@H]23)C[C@H]1O	–	–	11.2	30	9.4	6	16.4	11.6	11.7	–
0.03	0.06	0.04	C[C@@H](CCC(F)(F)C(C)(C)O)[C@H]1CC[C@H]2/C(=C/C=C3C[C@@H](O)C[C@H](O)C3)CCC[C@]12C	5.8	–	9.8	50	8.5	–	11.5	8.8	–	6.6
0.02	0.05	0.04	C[C@H](CCC(F)(F)C(C)(C)O)[C@H]1CC[C@H]2/C(=C/C=C3C[C@@H](O)C[C@H](O)C3)CCC[C@]12C	–	–	5.9	60	4.9	4.9	7.7	6.9	9.4	–
0.03	0.02	0.007	C=C1[C@H](O)CC(=C/C=C2\CCC[C@]3(C)[C@@H]([C@H](C)CCCC(C)(C)O)CC[C@@H]23)C[C@H]1O	–	–	–	150	–	–	–	–	–	–
0.03	0.03	0.02	C=C1[C@H](O)CC(=C/C=C2\CCC[C@]3(C)[C@@H]([C@@H](C)CCC(F)(F)C(C)(C)O)CC[C@@H]23)C[C@H]1O	5.8	–	9.8	100	9.5	–	8.7	12.4	–	6.6
